Laboratory results: patent US6780883B2, “Amide inhibitors of microsomal triglyceride transfer protein” (Warner-Lambert Company, priority 1998, dated 2004)
pIC50: −log10 of the molar value. Read-outs that look alike come from different tables or passages of the source.

Assays:
[1] = target: apolipoprotein(a), [apo(a)], apolipoproteinB-100, [apoB-100], coupling reaction that generates Lp(a) (Homo sapiens, UniProt P04114+P08519); experiment: LPABC screen: lipoprotein(a) biochemical coupling assay, Lp(a) content by ELISA; details: recombinant apo(a) 17-kringle (293 cell media) + HepG2 conditioned media, 67 minutes, 37° C., 0.3 to 50 μM compound; read-out: Lp ABC IC50
Procedure: LPABC Screen The lipoprotein(a), [Lp(a)], biochemical coupling assay (LPABC) is used to characterize inhibitors of the apolipoprotein(a), [apo(a)], apolipoproteinB-100, [apoB-100], coupling reaction that generates Lp(a). Conditioned media from 293 cells (ATCC CRL-1573), permanently transfected with an apo(a) 17-kringle cDNA expression construct (pcDNA-AMP, In Vitrogen, Carlsbad, Calif.) using standard molecular biology techniques, was used as a source of recombinant apo(a) is diluted 1:3 with phosphate buffered saline (PBS) and 90 μL is pipetted into each well of a 96-well plate and placed into a 37° C. incubator for 10 minutes. Twenty microliters of a 0.3 to 50 μM solution of a compound of the present invention in PBS is added to the warmed plate. Ninety microliters of HepG2 (ATCC HB-8065) cell conditioned media diluted 1:3 with PBS is added to the apo(a)/compound mixture and mixed by pipetting up and down 5 times. The reaction is incubated for 67 minutes in a 37° C. incubator. A 100 μL aliquot of the reaction is removed and assayed for its Lp(a) content by an enzyme linked immunosorbent assay (ELISA).

[2] = test system: Lp(a) production in HepG2^K17 cells; experiment: LPA3 screen: inhibition of Lp(a) production in transfected HepG2 cells, Lp(a) in media by ELISA; assay type: cell-based; details: 8 hours, 0.3 to 50 μM compound, Lp(a) normalized for total protein, read-out: Lp A3 IC50
Procedure: The LPA3 screen is used to identify compounds that inhibit Lp(a) production. This screen employs permanently transfected HepG2 cells (HepG2^K17) that are generated using an apo(a) 17-kringle cDNA expression construct (pcDNA-AMP, In Vitrogen, Carlsbad, Calif.) in accordance with methods that are well-known in molecular biology.
HepG2^K17 cells are seeded in 96-well plates at a density of 75,000 cells per well in 0.25 mL of Dulbecco's Modified Eagle Media (DMEM) containing 10% fetal bovine serum (FBS). Seeded plates are incubated overnight in a 37° C., 5% CO2/95% 02 incubator. The media is removed, replaced with (1) fresh media, or (2) fresh media plus 0.3 to 50 μM of a compound of the present invention in 20 μL of PBS, and the plates returned to the incubator for 8 hours. After the additional 8 hours of incubation, Lp(a) is assayed in the media by ELISA. Cells are digested with 0.5N NaOH overnight and assayed for total protein. Lp(a) values are normalized for total protein content.

pIC50 [1] | Compound | pIC50 ([2]; Homo sapiens) | pIC50 [2]
< 4.30 | COc1ccc(CN(C(=O)c2ccccc2SCc2ccccc2)c2ccc(OC)cc2)cc1 [Example 40, 2-Benzylsulfanyl-N-(4-methoxy-benzyl)-N-(4-methoxy-phenyl)-benzamide] | 4.22 | –
< 4.30 | COc1ccc(C(=O)N(Cc2cc(C(C)(C)C)cc(C(C)(C)C)c2)c2ccccc2)cc1OC [Example 41, N-(3,5-Di-tert-butyl-benzyl)-3,4-dimethoxy-N-phenyl-benzamide] | 4.31 | –
< 4.30 | COc1ccc(C(=O)N(Cc2cc(C(F)(F)F)cc(C(F)(F)F)c2)c2ccccc2)cc1OC [Example 42, N-(3,5-Bis-trifluoromethyl-benzyl)-3,4-dimethoxy-N-phenyl-benzamide] | 4.15 | –
< 4.30 | COc1ccc(C(=O)N(Cc2cc(Br)cc(Br)c2)c2ccccc2)cc1OC [Example 43, N-(3,5-Dibromo-benzyl)-3,4-dimethoxy-N-phenyl-benzamide] | 4.50 | –
< 4.30 | COc1ccc(CN(C(=O)c2ccc(OC)c(OC)c2)c2ccccc2)cc1 [Example 44, 3,4-Dimethoxy-N-(4-methoxy-benzyl)-N-phenyl-benzamide] | 4.29 | –
< 4.30 | COc1cccc(CN(C(=O)c2ccc(OC)c(OC)c2)c2ccccc2)c1 [Example 45, 3,4-Dimethoxy-N-(3-methoxy-benzyl)-N-phenyl-benzamide] | 4.28 | –
< 4.30 | COc1ccc(C(=O)N(Cc2ccc(Cl)c(Cl)c2)c2ccccc2)cc1OC [Example 46, N-(3,4-Dichloro-benzyl)-3,4-dimethoxy-N-phenyl-benzamide] | 4.45 | –
< 4.30 | COc1ccc(C(=O)N(Cc2ccc3ccccc3c2)c2ccccc2)cc1OC [Example 47, 3,4-Dimethoxy-N-naphthalen-2-ylmethyl-N-phenyl-benzamide] | 4.76 | –
< 4.30 | COc1ccc(C(=O)N(Cc2ccc(C(C)(C)C)cc2)c2ccccc2)cc1OC [Example 48, N-(4-tert-Butyl-benzyl)-3,4-dimethoxy-N-phenyl-benzamide] | 4.51 | –
< 4.30 | COc1ccc(C(=O)N(Cc2ccccc2-c2ccccc2)c2ccccc2)cc1OC [Example 49, N-Biphenyl-2-ylmethyl-3,4-dimethoxy-N-phenyl-benzamide] | 4.85 | –
< 4.30 | COc1ccccc1N(Cc1ccc(Cl)c(Cl)c1)C(=O)c1ccccc1 [Example 50, N-(3,4-Dichloro-benzyl)-N-(2-methoxy-phenyl)-benzamide] | 4.82 | –
< 4.30 | CCN(CC)CCCc1ccc(N(Cc2cc(C(C)(C)C)cc(C(C)(C)C)c2)C(=O)c2ccccc2)cc1 [Example 51, N-(3,5-Di-tert-butyl-benzyl)-N-[4-(3-diethylamino-propyl)-phenyl]-benzamide] | 4.61 | –
< 4.30 | CCN(CC)CCCc1ccc(N(Cc2cc(C(F)(F)F)cc(C(F)(F)F)c2)C(=O)c2ccccc2)cc1 [Example 52, N-(3,5-Bis-trifluoromethyl-benzyl)-N-[4-(3-diethylamino-propyl)-phenyl]-benzamide] | 4.92 | –
< 4.30 | CCN(CC)CCCc1ccc(N(Cc2cc(Br)cc(Br)c2)C(=O)c2ccccc2)cc1 [Example 53, N-(3,5-Dibromo-benzyl)-N-[4-(3-diethylamino-propyl)-phenyl]-benzamide] | 4.84 | –
< 4.30 | CCN(CC)CCCc1ccc(N(Cc2ccc(OC)cc2)C(=O)c2ccccc2)cc1 [Example 54, N-[4-(3-Diethylamino-propyl)-phenyl]-N-(4-methoxy-benzyl)-benzamide] | 4.38 | –
< 4.30 | CCN(CC)CCCc1ccc(N(Cc2cccc(OC)c2)C(=O)c2ccccc2)cc1 [Example 55, N-[4-(3-Diethylamino-propyl)-phenyl]-N-(3-methoxy-benzyl)-benzamide] | 4.43 | –
< 4.30 | CCN(CC)CCCc1ccc(N(Cc2ccc(Cl)c(Cl)c2)C(=O)c2ccccc2)cc1 [Example 56, N-(3,4-Dichloro-benzyl)-N-[4-(3-diethylamino-propyl)-phenyl]-benzamide] | 4.96 | –
< 4.30 | CCN(CC)CCCc1ccc(N(Cc2ccc3ccccc3c2)C(=O)c2ccccc2)cc1 [Example 57, N-[4-(3-Diethylamino-propyl)-phenyl]-N-naphthalen-2-ylmethyl-benzamide] | 4.94 | –
< 4.30 | CCN(CC)CCCc1ccc(N(Cc2ccccc2-c2ccccc2)C(=O)c2ccccc2)cc1 [Example 58, N-Biphenyl-2-ylmethyl-N-[4-(3-diethylamino-propyl)-phenyl]-benzamide] | 4.94 | –
< 4.30 | Cc1ccsc1C(=O)N(Cc1ccc2c(c1)C(C)(C)CCC2(C)C)c1ccc(I)cc1 [Example 59, 3-Methyl-thiophene-2-carboxylic acid (4-iodo-phenyl)-(5,5,8,8-tetramethyl-5,6,7,8-tetrahydro-naphthalen-2-ylmethyl)-amide] | 4.39 | –
< 4.30 | COc1ccc(CN(C(=O)c2ccccc2)c2ccccc2)cc1 [Example 60, N-(4-Methoxy-benzyl)-N-phenyl-benzamide] | 4.54 | –
< 4.30 | COc1cccc(CN(C(=O)c2ccccc2)c2ccccc2)c1 [Example 61, N-(3-Methoxy-benzyl)-N-phenyl-benzamide] | 4.33 | –
< 4.30 | COc1cc(C(=O)N(Cc2ccc3ccccc3c2)c2cnc3ccccc3c2)cc(OC)c1OC [Example 62, 3,4,5-Trimethoxy-N-naphthalen-2-ylmethyl-N-quinolin-3-yl-benzamide] | 4.65 | –
< 4.30 | COc1cc(C(=O)N(Cc2ccc(C(C)(C)C)cc2)c2cnc3ccccc3c2)cc(OC)c1OC [Example 63, N-(4-tert-Butyl-benzyl)-3,4,5-trimethoxy-N-quinolin-3-yl-benzamide] | 4.60 | –
< 4.30 | COc1cc(C(=O)N(Cc2ccccc2-c2ccccc2)c2cnc3ccccc3c2)cc(OC)c1OC [Example 64, N-Biphenyl-2-ylmethyl-3,4,5-trimethoxy-N-quinolin-3-yl-benzamide] | 4.88 | –
< 4.30 | COc1ccc(N(Cc2ccc3c(c2)C(C)(C)CCC3(C)C)C(=O)c2cc(OC)c(OC)c(OC)c2)cn1 [Example 65, 3,4,5-Trimethoxy-N-(6-methoxy-pyridin-3-yl)-N-(5,5,8,8-tetramethyl-5,6,7,8-tetrahydro-naphthalen-2-ylmethyl)-benzamide] | 4.49 | –
< 4.30 | COc1ccc(N(Cc2cc(C(C)(C)C)cc(C(C)(C)C)c2)C(=O)c2cc(OC)c(OC)c(OC)c2)cn1 [Example 66, N-(3,5-Di-tert-butyl-benzyl)-3,4,5-trimethoxy-N-(6-methoxy-pyridin-3-yl)-benzamide] | 4.71 | –
< 4.30 | COc1ccc(N(Cc2ccc(Cl)c(Cl)c2)C(=O)c2cc(OC)c(OC)c(OC)c2)cn1 [Example 67, N-(3,4-Dichloro-benzyl)-3,4,5-trimethoxy-N-(6-methoxy-pyridin-3-yl)-benzamide] | 4.26 | –
– | N-Biphenyl-2-ylmethyl-N-(3,4-dimethoxy-phenyl)-2-phenylmethanesulfinyl- [Example 143] | – | 5.80
